# Source: patent US20060183221A1, “Method for neural differentiation of embryonic stem cells using protease passaging techniques” (priority 2003, published 2006)
# Entries after “also recorded” stand apart in the source; their conditions may differ.
# Tests used:
# [1] = test system: EB8-derived cells; experiment: Injection of ceramide analog treated EB8-derived stem cells into mouse brains, teratoma formation; type: in vivo; conditions: EB8-derived cells treated with 75 μM S18 for 24-48 hours, injected into brain of 8-10 day old C57BL6 mice, analysed after 7-21 days
# Procedure: (§1) In vitro differentiating ES cells at stage EB8 were incubated for 24-48 hours with 75 μM S18, or 35 μM N-acyl sphingosine or other ceramide analogs. Protein was isolated from cells incubated with S18 for 24 hours and from untreated cells, separated by SDS-PAGE, and the expression of Oct4 was analyzed by immunoblotting.
# Prior to injection into the mouse brain, ES cells were labeled with Vybrant-DiI (rhodamine fluorescence) for permanent vital staining and were mixed with India ink in order to track the injection channel and cell migration/tissue integration. 1×10^4 of the untreated ES-J1 cells were injected, while 2×10^4 of the S18-treated cells were injected in order to control for the percentage of cells lost to apoptosis. The ES cells were injected into the right brain hemisphere (bregma −1.5 mm, 1 mm lateral of central suture, 2.0 mm deep) of 8-10 day old C57BL6 mice using a Hamilton syringe. After 7-21 days, the mice were sacrificed, the brain isolated and fixed with 10% PBS-buffered formalin. The brains were Vibratome sectioned at 100 μm. The distribution of the injected cells was determined by fluorescence microscopy.
# [2] = test system: Oct4; experiment: Oct4 expression by immunoblotting in EB8 stage ES cells incubated with S18; type: cell-based, mouse
# Procedure: as §1
# [3] = test system: SSEA4 selected HESCs; experiment: Neural differentiation of SSEA4 selected bulk passaged HESCs as serum free embryoid bodies with or without MEDII and S18, seeded and immunostained; type: cell-based, human; conditions: with or without 10 μM S18 from day 13 to day 17
# Procedure: Cultures were treated with or without 10 μM S18 from day 13 to day 17. After S18 treatment, serum free embryoid bodies were washed several times and cultured further until day 18. Serum free embryoid bodies were cut into pieces to seed down to polyornithine/laminin coated slides.
# In the presence of MEDII, a consistently high proportion of the culture contained TH+ neurons, with the background of non-neural regions that was negative for the neuronal marker βIII-Tubulin typically lower than 10%. It was not determined whether the effect of MEDII induced more efficient neuralization or inhibited the generation of non-neural cell types. […] This proportion was determined by analysis of double staining of neural extensions for βIII-Tubulin and TH (FIG. 18), and overlaying Hoffman images with TH immunofluorescence (FIG. 19). The increase in the proportion of TH+ neurons in MEDII treated differentiations appeared to be due to the overall increase in neuronal differentiation, rather than an effect on the proportion of neurons that were dopaminergic, because the proportions of neurons that were TH+ in differentiations not exposed to MEDII was equally high. Another marker of DA cells, VMAT, was expressed in similarly high proportions of cells within the sfEBM cultures. TH+/VMAT−, TH−/VMAT+ and TH+/VMAT+ cells were observed (FIG. 20), possibly indicating temporal variability in the induction of expression of these markers prior to being co-expressed.
# [4] = test system: differentiating mouse ES cells (ES-J1); experiment: Apoptosis (TUNEL staining) in differentiating mouse ES cells incubated with ceramide analogs; type: cell-based; conditions: for cell death: 20 hours with 75 μM S18; for TUNEL stained cells: 15 hours with 75 μM S16 or S18, or 35 μM C2-ceramide
# Procedure: In vitro neural differentiation of mouse ES cells (ES-J1, ES-D3) followed a serum deprivation protocol as described previously (Hancock, et al., 2000, Biochem. Biophys. Res. Commun. 271: 418-421). The differentiation stages are outlined in FIG. 2. Briefly, ES cells were grown on gamma-irradiated feeder fibroblasts for four days in Knockout DMEM/15% Knockout serum replacement, supplemented with ESGRO (LIF; Chemicon; Cat No. ESG1106) at a concentration of […] medium. ES cells were then grown for another four days on gelatin-coated bacterial culture dishes without a fibroblast feeder layer, and were then grown for three days in Knockout DMEM/15% heat-inactivated ES qualified Fetal Bovine Serum, supplemented with 10^3 units LIF per ml of medium. Upon trypsinization, ES cells were transferred to bacterial culture dishes without gelatin, and embryoid body (EB) formation was induced for four days in Knockout DMEM/10% heat-inactivated ES qualified FBS without LIF (EB4 stage). On the fifth day, floating and loosely attached EBs were rinsed off and transferred to tissue culture dishes. The EBs were allowed to attach to the tissue culture dish surface by incubation for another 24 hours in Knockout DMEM with 10% heat-inactivated ES qualified fetal bovine serum. Neural differentiation due to serum deprivation was induced by cultivation of the EBs for three days in DMEM/F12 (50/50), supplemented with 1×N2 (Invitrogen/Life Technologies; Cat No. 17502, dilution of 1: 100) but without serum (EB8 stage). Serum-deprived EBs were then trypsinized, plated on poly-L-ornithine/laminin-coated tissue culture dishes and grown for four days in DMEM/F12 (50/50), supplemented with N2 and 10 ng/ml FGF-2, but without serum. his incubation period is referred to as neuroprogenitor (NP) stage due to commitment of neuroepithelial precursor cells to neuroprogenitor cells. These cells have committed during the EB stages and were expanded during the NP stage. NPs grown for 48 hours upon replating of trypsinized EBs were referred to as the NP2 stage. On the fifth day of NP formation, the medium was changed to Neurobasal (Invitrogen/Life Technologies; Cat No. 21103-049), with 5% heat-inactivated FBS, and the cells were incubated for another seven days. During this time, NPs fully differentiate to glial cells and neurons. Cells cultured for 24 hours or 96 hours upon changing the medium were referred to as the D1 or D4 stage, respectively.
# ES cells were cultured and differentiated to the EB4, EB8, NP2, or D4 stage following the protocol as described above. The ceramide analog S18 was dissolved in ethanol at a concentration of 100 mM and then added to the cells at a final concentration of 75 μM in medium. The cells at the EB8 stage were incubated for 48 hours in the presence of the ceramide analog and were then transplanted into mouse brains.
# Differentiating ES cells were grown on cover slips and fixed with 4% paraformaldehyde in phosphate-buffered saline (PBS). Fixed cells were permeabilized with 0.5% Triton X-100 in PBS for 5 minutes at room temperature and unspecific binding sites were saturated by incubation with 3% ovalbumin in PBS for 1 hour at 37° C. The cover slips were then incubated with 5 μg/ml primary antibody (anti-ceramide clone 15B4 mouse IgM, Alexis; anti-PAR-4 rabbit IgG, Santa Cruz; anti-PCNA rabbit IgG, Santa Cruz; anti-nestin clone 401 rat IgG, BD Pharmingen) in 0.1% ovalbumin/PBS, followed by incubation with the appropriate fluorescence-labeled secondary antibody (5 μg/ml Alexa 546 conjugated anti-mouse IgG, Molecular Probes; Alexa 488 conjugated anti-rabbit IgG, Molecular Probes, Cy3 conjugated anti-mouse IgM, Jackson) for 2 hours at 37° C. The nuclei were stained by treatment with 2 μg/ml Hoechst 33258 in PBS for 30 minutes at room temperature. Apoptotic nuclei were stained using the fluorescein FragEL TUNEL assay (Oncogene) according to the manufacturer's instructions. […]
smiles,measurement,setting,value
"CCCCCCCC/C=C\CCCCCCCC(=O)NC(CO)CO [S18, N-(2-hydroxy-1-(hydroxymethyl)ethyl)-oleoylamide]",teratoma formation,[1],No teratomas were detected; also recorded: did not show the formation of teratomas
same,Oct4 protein level by immunoblot relative to untreated control cells,"[2]; 75 μM S18 for 24 hours, SDS-PAGE immunoblot",25%
same,decrease in Oct4 protein levels,[2]; after treatment with S18,75%
same,"differences between S18− and S18+ cultures (sfEB, sfEBM)",[3],No gross morphological or immunocytochemical staining differences were observed
same,cell death,[4]; EB8 and NP2 stages,high degree of cell death
same,TUNEL stained cells,[4]; EB8 stage,45±10%
same,TUNEL stained cells,[4]; NP2 stage,70±10%
same,cell death,[4]; differentiated neurons,unaffected
